Activity calls are given as the source filed them.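 How the source made its calls: active means mean half-maximal activating concentration from the dose-response fit at or below a set limit; inactive means the rest.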
Each compound was assayed against CHO-XBP1 luciferase reporter, IRE1-XBP1 UPR activation (assay: XBP1 luciferase reporter activation – CHO-XBP1 cells, luminescence, counter-screen for apoptotic UPR arm activators, dose response (AID 489040);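 further: reporter read after six hours of compound exposure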).

| Compound | EC50 |
| --- | --- |
| Cn1cc(/C=C2\SC(=O)NC2=S)c2ccccc21 | inactive |
| Nc1nnnn1/N=C/C(Br)=C/c1ccccc1 | > 80 µM (inactive) |
| Cc1cccc(C)c1NC(=O)C(Cl)C(=O)c1ccccc1 (centres undefined) | > 80 µM (inactive) |
| CCOc1cc(C=C(C(=O)OC)C(=O)OC)ccc1OCc1ccc([N+](=O)[O-])cc1 | > 80 µM (inactive) |
| COc1ccc(C(c2c(C)[nH]n(C(N)=S)c2=O)C(C#N)C#N)cc1 (centres undefined) | > 80 µM (inactive) |
| CCOc1ccc(-n2c(C)cc(C(=O)CCl)c2C)cc1 | 5.83 µM |
| O=C1CC(c2cccc(Cl)c2)CC(O)=C1C=Nc1ccccc1 (centres undefined) | > 80 µM (inactive) |
| CN(C(=O)CSc1cc(C(=O)c2nccn2C)c2ccccc2n1)c1ccccc1 | > 80 µM (inactive) |
| Cc1cccc(-n2c(/C=C/c3ccc([N+](=O)[O-])o3)nc3ccccc3c2=O)c1 | > 80 µM (inactive) |
| O=C(Nc1nc2c(F)cc(F)cc2s1)c1ccccn1 | > 80 µM (inactive) |
| COc1ccccc1-c1nnc(Nc2nc3c(OC)cccc3s2)o1 | > 80 µM (inactive) |
| COC(=O)c1ccc(COc2ccccc2/C=C(\C#N)C(=O)Nc2c(C)cccc2C)cc1 | inactive |
| NC(N)=N/N=C/c1ccc(N(c2ccccc2)c2ccccc2)cc1 | > 80 µM (inactive) |
| Oc1ccc(/C=N/Nc2cc(N3CCCC3)nc(N3CCCC3)n2)cc1O | inactive |
| O=c1[nH]c(=S)n(C2CC2)c(O)c1C=Nc1cccc(C(F)(F)F)c1 | > 80 µM (inactive) |
| Cn1nc(C(F)(F)F)c(/C=N/OC(=O)c2ccccc2)c1SCc1ccccc1Cl | 6.11 µM |
| CCCCCC(=O)Nc1ccc(C(=O)N/N=C/c2ccc([N+](=O)[O-])cc2)cc1 | > 80 µM (inactive) |
| N#CC(C#N)=C1C=CC=CN1/C(=C\c1ccccc1)C(=O)c1cccs1 | > 80 µM (inactive) |
| Cc1ccc(N2CCN(c3ccc(NCc4nc5ccccc5n4C)cc3)CC2)cc1 | inactive |
| N#CC1(C#N)COC23CCCCC2C1(C#N)C(=N)O3 (centres undefined) | > 80 µM (inactive) |

| Compound | EC50 |
| --- | --- |
| CCCOc1ccc(N2C(=O)CC(N(O)c3ccccc3)C2=O)cc1 (centres undefined) | > 80 µM (inactive) |
| Cc1ccc(C(C[N+](=O)[O-])n2nc(C)cc2C)cc1 (centres undefined) | > 80 µM (inactive) |
| CCOC(=O)c1sc(NC(=S)NC(=O)c2ccccc2)c(C(=O)OCC)c1C | > 80 µM (inactive) |
| Oc1ccc(-c2csc(Nc3cccc4ccccc34)n2)cc1O | > 80 µM (inactive) |
| CCCCNC1C(CC)C(CCC)C(C#N)(C#N)C1(C#N)C#N (centres undefined) | > 80 µM (inactive) |
| Cc1ccc(C[n+]2c(-c3ccc(C)cc3)cc(-c3ccc(C)cc3)cc2-c2ccc(C)cc2)cc1 | > 80 µM (inactive) |
| Oc1ccc(-c2cn3ccccc3n2)cc1O | > 80 µM (inactive) |
| COC(=O)c1cc(=O)n(CCc2ccc(OC)c(OC)c2)c(=Nc2ccc(F)c(Cl)c2)s1 | > 80 µM (inactive) |
| COc1ccc(/C=C/C(=O)c2ccc(C(=O)/C=C/c3ccc(OC)c(OC)c3)cc2)cc1OC | > 80 µM (inactive) |
| CC1(C)CC(=O)C(=Cc2cn(-c3ccccc3)nc2-c2ccccc2)C(=O)C1 | > 80 µM (inactive) |
| Cc1cc(N2CCN(c3ccc([N+](=O)[O-])c4cccnc34)CC2)c2ccccc2n1 | > 80 µM (inactive) |
| COc1ccc(N=C2S/C(=C\c3ccc(N4CCOCC4)o3)C(=O)N2CCc2c[nH]c3ccccc23)cc1 | > 80 µM (inactive) |
| COc1ccc(-c2oc(NC(=O)CCl)c(C#N)c2-c2ccc(OC)cc2)cc1 | > 80 µM (inactive) |
| O=C(Nc1ccc(N2CCOCC2)cc1)c1ccc([N+](=O)[O-])o1 | > 80 µM (inactive) |
| CC(=O)N(\C=C/C=C/C=C1\Sc2ccccc2C1=O)c1ccccc1 | > 80 µM (inactive) |
| O=C(Nc1ccc2oc(-c3ccncc3)nc2c1)c1ccc([N+](=O)[O-])o1 | > 80 µM (inactive) |
| COc1ccc(/C=C/C(=O)Oc2ccc(C)cc2)cc1 | > 80 µM (inactive) |
| Cc1ccc(-c2nnc(-c3ccc(NC(=O)c4cccs4)cc3)o2)cc1 | 11.9 µM |
| Cc1c(NC(=O)CSc2cccc3cccnc23)c(=O)n(-c2ccccc2)n1C | > 80 µM (inactive) |
